“Also recorded” adds a separate entry of the source.
How the values were obtained:
[1] = Photostability under UV-visible light with HPLC analysis (degradation, dimer formation); format: physicochemical; conditions: for % Degradation (3h, UV): 10 μM, buffered aqueous solution pH 7.4, 3 h UV-visible light, ± SD; for Dimers Formation: HPLC at 550 nm
Text: Two different HPLC wavelengths were utilized: (a) […] to evaluate the decreased concentration of the starting molecule; (b) 550 nm to investigate the formation of phenazine/phenazinium dimers, as previously described.[10] Unfortunately, dimer formation was detected for all tested compounds, except for 23 and 24. […]. […]. The first group consisted of N4 (−X- in Table 2) substituted analogues, in which the tertiary amine is unavailable for the formation of phenazine dimers (compounds 25–28). […]. The third group included derivatives replacing hydrogen atoms with electron-withdrawing fluorine atoms at position R2 of the benzene-1,2,4-triamine core scaffold (compounds 59, 60), a strategy likely reducing the reactivity of N2 and N4. […].
(§1) Photostability experiments were performed by dissolving compounds in DMSO and then diluting in buffered aqueous solutions at pH 7.4 to a final concentration of 10 μM. 1 cm quartz cells, filled with the abovementioned solutions, were irradiated by a UV lamp (UV Consulting TQ 150 equipped with Duran 50 sleeve and 150 W power supply unit, Peschl, Germany) at a fixed distance of 20 cm from the UV source. Control samples were maintained at 37 °C, wrapped with aluminum foil to avoid light exposure, and used to assess chemical stability of the compounds. At predetermined intervals, aliquots were withdrawn and analyzed by UHPLC in order to assess the concentration decrease of the starting materials and the presence of the dimers usually formed by retigabine.
Photostability and chemical stability experiments were carried out on a Kinetex^TM C18 150 × 2.1 mm × 2.6 μm (100 Å) column (Phenomenex, Bologna, Italy). The optimal mobile phase consisted of 0.1% TFA/H2O v/v (A) and 0.1% TFA/ACN v/v (B). Analysis was performed in gradient elution as follows: 0–13.0 min, 5–65% B; 13–14.0 min, 65–95% B; 14–15.0 min, isocratic to 95% B; 15–15.01 min, 95–5% B; then 3 min for column re-equilibration. The flow rate was 0.5 mL min^–1. The column oven temperature was set to 45 °C. The injection volume was 7 μL of sample. The following PDA parameters were applied: sampling rate, 12.5 Hz; detector time constant, 0.160 s; cell temperature, 40 °C. Data acquisition was set in the range 190–800 nm, and chromatograms were monitored at 224 nm to assess the decrease in concentration of the starting material, while a wavelength of 550 nm was used to eventually detect dimerization.

[2] = Plasma concentration-time course and half-life in rats; conditions: Sprague-Dawley, rat, in vivo, ip, 3 mg/kg
Description: The drug half-lives were calculated using GraphPad Prism 8.0.2 (GraphPad Software, LaJolla, CA).
Returning to 40% B in 0.10 min. The flow rate was set at 0.5 mL/min. The column oven was set at 45 °C, and 5 μL of extract was injected. All additives and mobile phases were LCMS-grade and purchased from Merck (Milan, Italy).
The ESI was operated in positive mode. […] Interface temperature, desolvation line temperature, and heat block temperature were set, respectively, to 250, 250, and 350 °C. Nebulizing, drying (N2), and heating gas (air) were set, respectively, to 3, 10, and 10 L/min.

Kv7.2/Kv7.3 channels = Kv7.2/Kv7.3 channels (Homo sapiens, UniProt O43525+O43526); assay: FluxOR thallium-sensitive fluorescence-based assay in CHO cells stably expressing Kv7.2 + Kv7.3; format: cell-based; parameters: expressed in transfected cells; conditions: for Slope of the fluorescent signal at 10 μM: initial slope of FluxOR signal between 5 and 15 s, mean ± SEM; for EC50: FluxOR dose-response, slope parameter, read-out: EC50 (initial slope of the fluorescence signal)
Kv7.4 channels = target: T1, Kv7.4 channels (Homo sapiens, UniProt P56696); assay: Whole-cell patch-clamp electrophysiology in CHO cells expressing Kv7.4; format: cell-based; conditions: 0.1 μM, Kv7.4 currents
T1 construct: expressed in transfected cells; host or cells: CHO cells
Description: In order to evaluate the effects of compound 60 on other Kv7 channels, its ability to activate Kv7.4 channels expressed in CHO cells was also investigated. […]. During the recording, constant perfusion of extracellular solution was maintained. The extracellular solution contained (in mM): 138 NaCl, 2 CaCl2, 5.4 KCl, 1 MgCl2, 10 glucose, and 10 HEPES, at pH 7.4, with NaOH. The pipette (intracellular) solution contained (in mM): 140 KCl, 2 MgCl2, 10 EGTA, 10 HEPES, 5 Mg^2+-ATP, at pH 7.3–7.4, with KOH. Current was recorded using an Axopatch-200A amplifier, filtered at 5 kHz, and digitized using a DigiData 1440A (Molecular Devices). The pCLAMP software (version 10.2) was used for data acquisition and analysis (Molecular Devices). To evaluate the activity of each compound on Kv7.2 + Kv7.3 currents, the cells were clamped at −80 mV and conductance–voltage curves (G/V curves; activation curves) were generated by normalizing to the maximal value of the instantaneous isopotential currents at 0 mV and expressing the normalized values as a function of the preceding voltages. Data were fit to a Boltzmann distribution of the following form: y = max/[1 + exp (V1/2 – V)/k], where V is the test potential, V1/2 is the half-activation potential, and k is the slope factor.

[3] = Chemical stability in aqueous buffer without light exposure; format: physicochemical; conditions: 3 h, avoiding UV light exposure
Description: […]. The reduced electron availability at N2 and N4 due to the presence of fluorine atom in position 3 of compound 60 strongly reduces also the first photo-oxidative step, thus conferring remarkable photostability.
as §1
Photostability and chemical stability experiments were carried out on a Kinetex^TM C18 150 × 2.1 mm × 2.6 μm (100 Å) column (Phenomenex, Bologna, Italy). […] Data acquisition was set in the range 190–800 nm, and chromatograms were monitored at 224 nm to assess the decrease in concentration of the starting material, while a wavelength of 550 nm was used to eventually detect dimerization.

| SMILES | % Degradation (3h, UV) [1] | Dimers Formation ([1]; 3 h UV-visible light) | log P (Lipophilicity (log P); method not stated) | half-life [2] | Slope of the fluorescent signal at 10 μM (Kv7.2/Kv7.3 channels; 10 μM) | EC50 (Kv7.2/Kv7.3 channels) | Photodegradation (in words) ([1]; 3 h UV-visible light, compared with retigabine) | logP (Lipophilicity (log P)) | Idrug/Icontrol (Kv7.4 channels) | ΔV1/2 (Kv7.4 channels) | Kv7 opening activity (in words) (Kv7.2/Kv7.3 channels; 10 μM, compared with retigabine or the reference compound of the subseries) | Chemical stability [3] |
| --- | --- | --- | --- | --- | --- | --- | --- | --- | --- | --- | --- | --- |
| CCOC(=O)Nc1ccc(NCc2ccc(F)cc2)cc1N [RET, retigabine] | 61.3±0.1% | Yes | 3.08 | 2.4 h | 0.0270±0.0052 | 11.2 ± 1.6 µM | – | – | – | – | – | – |
| CC(C)(C)CC(=O)Nc1ccc(NCc2ccc(C(F)(F)F)cc2)c(F)c1N [compound 60, N-(2-Amino-3-fluoro-4-((4-(trifluoromethyl)benzyl)amino)phenyl)-3,3-dimethylbutanamide] | 34.8± 1.8% | failed to dimerize and No | – | – | 0.0594±0.0026 | 3.2 ± 1.7 µM | more photostable than retigabine | 4.74 | 2.5 ± 0.3 | −29.2 ± 4.4 mV | enhanced; also recorded: higher than that of retigabine | showed chemical stability |
